Test results as given in US9121015B2, “Peptide having a vascularization-suppressing activity and a use therefor” (CATHOLIC UNIVERSITY INDUSTRY ACADEMIC COOPERATION FOUNDATION, priority 2010, dated 2015).
“Also recorded” adds a separate entry of the source. Read-outs that look alike come from different tables or passages of the source. No end group written: not given here.

Tests used:
[1] = tested on: MDAMB231 breast cancer cells; assay: cancer cell migration, modified Boyden chamber assay, EGF-induced; format: cell-based, human
Experimental: In order to investigate the effect of the respective peptides on cancer cell migration, modified Boyden chamber assay was conducted. MDAMB231 breast cancer cells have EGF receptor and have ability to migrate and metastasize. […] The above results also support that the peptides of the present invention can inhibit cancer cell metastasis.

HUVECs [2] = assay: tube formation assay on Matrigel; format: cell-based, human; conditions: 100 μM; for tube formation inhibited/decreased: compared to control group, tube lengths
Experimental: Chilled Matrigel (150 μl, BD Bioscience) was placed in a pre-chilled 48-well plate and incubated for 30 min at 37° C. HUVECs were treated with each peptide for 30 min and then added to the top of the solidified Matrigel. After 19 h of incubation, the tubes formed were photographed. Images were analyzed using Image J <http://rsb.info.nih.gov/ij/> to determine tube lengths.
That is, the incubated HUVEC with a new serum-free medium was incubated for 2˜4 hr and harvested the cells. After treating the harvested cells at 100 μM with the respective peptides for 30 min, the cells on the hardened Matrigel was incubated for 11˜19 hr, while observing the degree of tube formation, and measured and calculated the lengths of the tubes formed. As a result, it was observed that all the tested peptides, while varying degrees, inhibited tube formation. […] UP3 decreased tube formation by 47%, and TP1 by approximately 37%.

HUVECs [3] = assay: HUVEC proliferation, MTS assay; format: cell-based, human; conditions: for cell viability reduced: 100 μM, compared to untreated control, 5% FBS and 10 ng/ml bFGF; for inhibition of growth of endothelial cells: 5% FBS and bFGF stimulated
Experimental: Cell proliferation was measured by MTS assay. HUVECs were seeded to gelatin-coated 96-well plate at 1,000 cells/well and incubated in M199 supplement media for 48 h. After 48 h, cells were incubated in serum free M199 medium for 4 h, and then treated with each peptide at indicated concentrations for 30 min. Then, the cells were stimulated with 5% FBS and 10 ng/ml bFGF, and were incubated for 48 or 72 hr. Then, assessment of cell proliferation was done by MTS assay.

HUVECs [4] = assay: endothelial cell migration assay, modified Boyden chamber, VEGF-induced; format: cell-based, human; conditions: for cell migration reduced: VEGF-induced, compared to untreated control; for inhibition of VEGF-induced migration of endothelial cells: 0.1˜100 μM
Experimental: In order to evaluate the effect of the peptides of the present invention on the cell migration, the present inventors conducted cell migration assay using modified Boyden chamber. HUVECs were treated with each peptide for 30 min and then, the cells were allowed to migrate toward VEGF (2˜5 ng/ml). After 5 h, the migrated cells were fixed and stained with hematoxilin and eosin. The stained cells were photographed and counted.

in vivo angiogenesis = assay: in vivo Matrigel plug assay, hemoglobin by Drabkin's reagent; set-up: species or system C57/BL6 mice; conditions: for plugs with excessive amount of hemoglobin exceeding 500 mg/dl / hemoglobin amount of Matrigel plug, median: 7 days; for hemoglobin amount / in vivo angiogenesis inhibition (words): compared to control group; for hemoglobin amount of Matrigel plug, median: mice, subcutaneous Matrigel with bFGF, VEGF, heparin and peptide
Experimental: In order to examine the anti-angiogenic activity of the respective peptides in vivo, Matrigel plug assay was performed. 7-week-old C57/BL6 mice (SLC, Japan) were injected subcutaneously in the midventral abdominal region with 0.6 ml of Matrigel containing the bFGF (100 ng/ml), VEGF (100 ng/ml) and heparin (15 unit) with or without peptide. After 7 days, mice were sacrificed by inhalation of CO2 gas and the Matrigel plugs were removed and photographed. To evaluate the formation of vessels, the amount of hemoglobin was quantified using Drabkin's reagent (Sigma). The Matrigel plug was sonicated in RBC lysis buffer (Sigma) and centrifuged at 14000 rpm for 20 min. The supernatant was mixed with Drabkin's reagent and incubated for 3 min. Then, absorbance was measured at 540 nm.

[5] = tested on: A549 lung cancer cell line; format: cell-based, human; conditions: 48 hr, 5% FBS
Experimental: The Effect of the peptides on cancer cell proliferation was investigated using A549 lung cancer cell line. A549 cells were seeded to 96 well plate at 1,000 cells/well and incubated in DMEM medium containing 10% FBS for 48 h. After treatment of each peptide for 30 min, the proliferation of cancer cells was stimulated by 5% FBS alone. After each incubation time, MTS solution was added to each well and incubated for 2 h. Assessment of proliferation was determined by measurement of absorbance at 490 nm.

[6] = 100 μM, compared to untreated control

CC(C)C[C@H](NC(=O)[C@@H](NC(=O)[C@@H](NC(=O)[C@H](C)NC(=O)[C@H](CO)NC(=O)[C@H](CC(N)=O)NC(=O)[C@H](Cc1c[nH]c2ccccc12)NC(=O)[C@@H]1CCCN1)[C@@H](C)O)C(C)C)C(=O)N[C@@H](CCC(N)=O)C(=O)N[C@@H](CCC(N)=O)C(=O)N[C@H](C(=O)N[C@@H](Cc1ccc(O)cc1)C(=O)N[C@@H](Cc1c[nH]cn1)C(=O)N[C@@H](C)C(=O)N[C@@H](Cc1c[nH]cn1)C(=O)O)[C@@H](C)O [UP3, PWNSATVLQQTYHAH]
inhibition of migration of breast cancer cell [1]: concentration-dependently inhibited the migration | cell migration decreased [1, 6]: 81% | tube formation inhibited/decreased (HUVECs [2]): 47% | cell viability reduced (HUVECs [3]): approximately 24% | inhibition of growth of endothelial cells (HUVECs [3]): inhibited growth of endothelial cells | cell migration reduced (HUVECs [4]; 100 μM): 28.6% | inhibition of VEGF-induced migration of endothelial cells (HUVECs [4]): concentration-dependently inhibited; also recorded: significantly inhibition at concentration of 10 μM or above | plugs with excessive amount of hemoglobin exceeding 500 mg/dl (in vivo angiogenesis): showed such plugs with excessive hemoglobin | hemoglobin amount / in vivo angiogenesis inhibition (words) (in vivo angiogenesis): reduced median value | hemoglobin amount / in vivo angiogenesis inhibition (words) (in vivo angiogenesis; listed as UP-3): decreased amount of hemoglobin | hemoglobin amount of Matrigel plug, median (in vivo angiogenesis): 4.8 mg/dL

FGNGSAY [TP1, reference compound]
tube formation inhibited/decreased (HUVECs [2]): approximately 37% | inhibition of migration of endothelial cells (HUVECs [4]; 100 μM): did not inhibit the migration of endothelial cells | plugs with excessive amount of hemoglobin exceeding 500 mg/dl (in vivo angiogenesis): showed such plugs with excessive hemoglobin

PWCHVLKNRRLTWEY [TP7, PWCHVLKNRRLTWEY]
inhibition of migration of breast cancer cell [1]: concentration-dependently inhibited the migration | cell migration decreased [1, 6]: 66.3% | tube formation inhibited/decreased (HUVECs [2]): approximately 93% | cell viability reduced (HUVECs [3]): 65.1% | inhibition of growth of endothelial cells (HUVECs [3]): inhibited growth of endothelial cells; also recorded: strong inhibition effect | inhibition of proliferation of A549 cancer cells (words) [5]: concentration-dependently inhibited proliferation | inhibition of proliferation of A549 cancer cells (words) ([5]; listed as TP-7): inhibited proliferation of cancer cells concentration-dependently | cell migration reduced (HUVECs [4]; 100 μM): 31.4% | inhibition of VEGF-induced migration of endothelial cells (HUVECs [4]): concentration-dependently inhibited | plugs with excessive amount of hemoglobin exceeding 500 mg/dl (in vivo angiogenesis): did not exhibit such plugs | hemoglobin amount / in vivo angiogenesis inhibition (words) (in vivo angiogenesis): decreased amount of hemoglobin | hemoglobin amount of Matrigel plug, median (in vivo angiogenesis): 37.3 mg/dL | median value of hemoglobin amount reduced to (vs untreated control) (in vivo angiogenesis; without statistical significance): ~51%

PWCYVQVGLKPLVQE [UP7, PWCYVQVGLKPLVQE]
inhibition of migration of breast cancer cell [1]: concentration-dependently inhibited the migration; also recorded: most potent inhibitory effect | cell migration decreased ([1]; 10 μM): approximately 66% | cell migration decreased [1, 6]: 88% | inhibition of tube formation (HUVECs [2]): did not show any inhibitory effect | cell viability reduced (HUVECs [3]): 69.6% | inhibition of growth of endothelial cells (HUVECs [3]): inhibited growth of endothelial cells; also recorded: strong inhibition effect | inhibition of proliferation of A549 cancer cells (words) [5]: concentration-dependently inhibited proliferation | inhibition of proliferation of A549 cancer cells (words) ([5]; listed as UP-7): inhibited proliferation of cancer cells concentration-dependently | cell migration reduced (HUVECs [4]; 100 μM): approximately 72% | inhibition of VEGF-induced migration of endothelial cells (HUVECs [4]): concentration-dependently inhibited | plugs with excessive amount of hemoglobin exceeding 500 mg/dl (in vivo angiogenesis): did not exhibit such plugs | hemoglobin amount / in vivo angiogenesis inhibition (words) (in vivo angiogenesis): remarkably reduced hemoglobin amount | hemoglobin amount / in vivo angiogenesis inhibition (words) (in vivo angiogenesis; listed as UP-7): decreased amount of hemoglobin; also recorded: most potent inhibitory activity against in vivo angiogenesis | hemoglobin amount of Matrigel plug, median (in vivo angiogenesis): 16.3 mg/dL

PWNSMILIGKVYTAQ [TP3, PWNSMILIGKVYTAQ]
inhibition of migration of breast cancer cell [1]: concentration-dependently inhibited the migration | cell migration decreased ([1]; 1 μM, compared to untreated control): ~30% | cell migration decreased [1, 6]: ~69.4% | tube formation inhibited/decreased (HUVECs [2]): approximately 70% | cell viability reduced (HUVECs [3]): approximately 26.7% | inhibition of growth of endothelial cells (HUVECs [3]): inhibited growth of endothelial cells | inhibition of proliferation of A549 cancer cells (words) [5]: concentration-dependently inhibited proliferation | inhibition of proliferation of A549 cancer cells (words) ([5]; listed as TP-3): inhibited proliferation of cancer cells concentration-dependently | cell migration reduced (HUVECs [4]; 0.1 μM): 15.4% | plugs with excessive amount of hemoglobin exceeding 500 mg/dl (in vivo angiogenesis): showed such plugs with excessive hemoglobin
